Data: publication PMC6368403, “Identification of a bilirubin receptor that may mediate a component of cholestatic itch” (eLife, 2019)
“And” between values parts separate entries of the source, which are not always exact repeats. Identical values can stand only once. Numbered stars: 1 amine (or outer) side, 2 acyl side, 3 side chain; on linkers, the order of the positions; unused ones are H or OH. Bridge positions count the residues as written; N and C are the ends. Square brackets hold non-standard residues; d marks the D form. Peptide text beside a SMILES is read from it. X1 = CC(=O)NC(C(=O)OC(C(C)C)C(N[*:1])C(=O)[*:2])C(O)C(C)C; PhLac = O=C(O)[CH](O)Cc1ccccc1; NMeT = CN[CH](C(=O)O)[CH](C)O; NMeA = CN[CH](C)C(=O)O; NMeDha = C=C(NC)C(=O)O

Legend:
[1] = target: T1, MRGPRA1 (Mus musculus, UniProt Q91WW5); assay: Ca2+ imaging and concentration-Ca2+ response (EC50) in HEK293 cells expressing MRGPRA1; assay type: cell-based; settings: MRGPRA1 cells pre-incubated with 10 µM inhibitor for 30 min, 50 µM bilirubin
T1 construct: expressed in transfected cells
T1 sequence (Q91WW5 1-304): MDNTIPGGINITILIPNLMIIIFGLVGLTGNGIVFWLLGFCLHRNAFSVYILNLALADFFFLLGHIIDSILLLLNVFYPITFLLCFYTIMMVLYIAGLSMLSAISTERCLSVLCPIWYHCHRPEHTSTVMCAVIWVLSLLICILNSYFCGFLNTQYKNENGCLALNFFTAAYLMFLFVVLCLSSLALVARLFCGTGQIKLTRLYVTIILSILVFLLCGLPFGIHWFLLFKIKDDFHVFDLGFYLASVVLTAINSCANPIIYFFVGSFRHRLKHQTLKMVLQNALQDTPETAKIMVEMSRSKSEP
Method: (§1) All cultured cells were maintained in DMEM supplemented with 10% FBS and 1% Penicillin/Streptomycin at 37°C, 5% CO2. All data included were generated from cells tested for mycoplasma and found to be negative. Cells were imaged in calcium imaging buffer (CIB; 10 mM HEPES, 1.2 mM NaHCO3, 130 mM NaCl, 3 mM KCl, 2.5 mM CaCl2, 0.6 mM MgCl2, 20 mM glucose, and 20 mM sucrose at pH 7.4 and 290–300 mOsm). To monitor changes in intracellular [Ca^2+] ([Ca^2+]i), cells were loaded with either Fura 2-AM (HEK293 cells) or Fluo 4-AM (DRG neurons and mast cells) for 30 min in the dark at 37°C in CIB just prior to imaging. With Fura 2-AM, emission at 510 nm was monitored from excitation at both 340 nm and 380 nm. With Fluo 4-AM, emission at 520 nm was monitored from excitation at 488 nm. Cells were identified as responding if the intracellular [Ca^2+] rose by either 50% compared to baseline or 50% compared to the [Ca^2+]i change assayed during addition of 50 mM KCl (neurons only). Damaged, detached, high-baseline, and motion-activated cells were excluded from analysis.
(§2) In initial screens, HEK293 cells stably expressing the murine G-protein alpha-subunit Gα15, a unique Gα protein that non-selectively couples a large variety of GPCRs to phospholipase C ^30, were plated on poly-D-lysine-coated coverslips and transiently transfected with constructs encoding the MRGRPR of interest. 12–24 hr later, cells were loaded with the Fura 2-AM. Unless otherwise specified, compounds were perfused into the imaging chamber for approximately thirty seconds after a baseline period was established. Response was then monitored at 5 s intervals for an additional 60 s.
(§3) HEK293 cells stably expressing either MRGPRA1, MRGPRX4, and MRGRPC11 were seeded in poly-D-lysine-coated 96-well plates at 10,000 cells/well. Cells were loaded with Fura 2–AM, washed twice, and maintained in CIB. Haem metabolites were freshly dissolved in DMSO in dim light and then diluted into a buffer comprised of 20 mM Tris and 150 mM NaCl at pH 8.8. Potential changes in pH were evaluated prior to each experiment. EC50 values were determined from dose-responses performed in triplicate, repeated 2–4 times. To determine potential antagonism by QWF against bilirubin, cells were treated with varying doses of QWF for 1 min in CIB prior to application of agonist.
(§4) HEK293 stable cell lines expressing GFP-tagged MRGPRA3, MRGPRC11, MRGPRD, MRGPRX1, and MRGPRX2 were generated in previously described reports ([Liu et al., 2009]; [Liu et al., 2012]; [McNeil et al., 2015]). Briefly, plasmids containing the receptor of interest were transfected into HEK cells using Lipofectamine 3000. After 3 days, cells were then selected using 0.5 mg/mL G418. After 3 weeks, monoclonal colonies were established and each the highest expressing clones were identified. For this study, Mrgpra1 and MRGPRX4 were inserted into pEGFP-N1 and transfected into HEK293 cells. MRGPR-positive cells were selected using 0.5 mg/mL G418 for three weeks, after which GFP-positive cells were sorted by FACS and monoclonally expanded. Two lines expressing similar levels of MRGPRA1 and MRGPRX4, as measured by GFP fluorescence, were selected for study.

[2] = target: T2, MRGPRX4 (Homo sapiens, UniProt Q96LA9); assay: Ca2+ imaging and concentration-Ca2+ response (EC50) in HEK293 cells expressing MRGPRX4; assay type: cell-based; settings: MRGPRX4 cells pre-incubated with 10 µM inhibitor for 30 min, 50 µM bilirubin
T2 construct: expressed in transfected cells
Method: as §1, §2, §3, §4

[3] = system: mice; assay: Scratching bouts after subcutaneous injection into the nape of the neck / back; assay type: in vivo, mouse; settings: for Scratching bouts binned according to 5 min intervals (time course of itch behavior): one column per mouse, values of a mouse sum to 1 (Fig 1B)
Method: All applicable behavioral tests were performed and analysed with the experimenter blind to genotype. […] On the day before the experiment, animals were placed in the test chamber for 30 min before being subjected to a series of three mock injections with 5 min break periods in between. On the day of the experiment, animals were first allowed to acclimatize to the test chamber for 10 min before injection. […] A bout of scratching was defined as a continuous scratching movement with either hindpaw directed at the area of the injection site. In the cheek injection model, a wipe was defined as a single forepaw stroking the site of the injection. Use of both forepaws on the face or cheek was considered as grooming behavior. […] For H1R block, 30 mg/kg of cetirizine HCl (pH 7.4) was given intraperitoneally thirty minutes prior to injection of bilirubin. Licking behavior was quantified in seconds and identified as the licking of the toes or footpad of the hind paw site of injection that was neither preceded nor followed by licking of any other portion of the body.

T2 sequence (Q96LA9 whole entry): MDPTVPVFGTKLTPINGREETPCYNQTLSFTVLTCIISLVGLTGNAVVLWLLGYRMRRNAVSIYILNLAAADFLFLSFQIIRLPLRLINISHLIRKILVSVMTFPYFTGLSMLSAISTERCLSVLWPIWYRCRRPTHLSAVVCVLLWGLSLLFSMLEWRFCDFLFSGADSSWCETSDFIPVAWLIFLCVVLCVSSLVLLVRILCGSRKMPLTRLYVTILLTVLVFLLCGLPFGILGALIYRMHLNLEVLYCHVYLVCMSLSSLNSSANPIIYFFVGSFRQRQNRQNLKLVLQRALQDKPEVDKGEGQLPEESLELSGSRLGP

Structure (SMILES)	Effect on bilirubin-induced calcium responses [1]	Effect on bilirubin-induced calcium responses [2]	Effect on scratching of mice injected with bilirubin ([3]; 30 mg/kg i.p. 30 min prior to bilirubin at the nape)	Scratching bouts binned according to 5 min intervals (time course of itch behavior) ([3]; time 5 min)	Scratching bouts binned according to 5 min intervals (time course of itch behavior) ([3]; time 10 min)	Scratching bouts binned according to 5 min intervals (time course of itch behavior) ([3]; time 15 min)	Scratching bouts binned according to 5 min intervals (time course of itch behavior) ([3]; time 20 min)	Scratching bouts binned according to 5 min intervals (time course of itch behavior) ([3]; time 25 min)	Scratching bouts binned according to 5 min intervals (time course of itch behavior) ([3]; time 30 min)
C=C1C(=O)NC(C)C(=O)N(C)C(C)C(=O)NC(C(OC(=O)C(NC(C)=O)C(O)C(C)C)C(C)C)C(=O)N(C)C(C(C)OC)C(=O)OC(C)C(NC(C)=O)C(=O)OC(Cc2ccccc2)C(=O)N1C (centres unmarked) [YM-254890, reference compound] (Ac-T[PhLac][NMeDha]A[NMeA][X1][NMeT](Me); ester 1-C; configuration not given here)	abolished bilirubin-induced calcium responses	inhibited bilirubin-induced calcium responses	–	–	–	–	–	–	–
O=C(O)COCCN1CCN(C(c2ccccc2)c2ccc(Cl)cc2)CC1 (centres unmarked) [cetirizine]	–	–	failed to alleviate scratching behavior	–	–	–	–	–	–
CCN(CC)CCCC(C)Nc1ccnc2cc(Cl)ccc12 (centres unmarked) [Chloroquine, chloroquine]	–	–	–	0.201 and 0.03846 and 0.1149 and 0.1078 and 0.05405 and 0 (2×) and 0.1374 and 0.04255 and 0.2424 and 0.1529	0.2353 and 0.1065 and 0.2213 and 0.1121 and 0.1459 and 0.2993 and 0.3626 and 0.4113 and 0.6263 and 0.2639 and 0.4204	0.348 and 0.3787 and 0.1447 and 0.2155 and 0.3676 and 0.3673 and 0.4011 and 0.3191 and 0 and 0.5 and 0.2548	0.1618 and 0.2426 and 0.2681 and 0.2284 and 0.1838 and 0.1837 and 0.0989 and 0.09929 and 0.1212 and 0 (2×)	0.05392 and 0.142 and 0.1447 and 0.1336 and 0.09189 and 0.1361 and 0 (3×) and 0.2361 and 0.172	0 (4×) and 0.09172 and 0.1064 and 0.2026 and 0.1568 and 0.01361 and 0.1277 and 0.0101
NCCc1c[nH]cn1 [Histamine, histamine]	–	–	–	0.02985 and 0.0102 and 0 (10×) and 0.134	0.3881 and 0.5714 and 0.08333 and 0.1818 and 0.3333 and 0.527 and 0.02857 and 0.1765 and 0.2143 and 0.1923 and 0.3918 and 0.5938 and 0.4348	0.2985 and 0.07143 and 0.8333 and 0.6545 and 0.625 and 0.3919 and 0.4286 and 0.2353 and 0.3367 and 0.3846 and 0.1031 and 0 and 0.5435	0.2687 and 0.1633 and 0 (2×) and 0.1636 and 0.04167 and 0.08108 and 0.2286 and 0.4118 and 0.08163 and 0.1154 and 0.2344 and 0.02174	0.01493 and 0.1837 and 0.08333 and 0 (4×) and 0.3143 and 0.1765 and 0.1939 and 0.3077 and 0.2474 and 0.1719	0 (11×) and 0.1735 and 0.1237
COc1ccc2c(c1)CC[C@@H]1[C@@H]2CC[C@]2(C)[C@@H](NCCCCCCN3C(=O)C=CC3=O)CC[C@@H]12 [U73122, reference compound]	abolished bilirubin-induced calcium responses	inhibited bilirubin-induced calcium responses	–	–	–	–	–	–	–
